Earlier results as cited in US7135437B2, “Stable liquid pesticide compositions” (Monsanto Technology LLC, priority 2000, dated 2006).

Details: at 20° C.

O=C(O)CNCP(=O)([O-])O.[K+] [glyphosate potassium salt]
solubility in pure water, glyphosate acid equivalent: about 44 % glyphosate acid equivalent (a.e.) by weight
solubility in pure water (as salt): about 54 % by weight
